From patent publication US20090215729A1, “MICROPARTICLE COMPOSITIONS TO MODIFY CANCER PROMOTING CELLS” (priority 2008, published 2009) come the findings set out here.

In this test the test system is 4t1-luc cancer cells. The experiment in a line: syngeneic 4t1 mouse model of breast cancer, tumor volume growth. Conditions: Balb/c mice, tail vein injection 100 microliters, six administrations, twice a week starting day 1 after tumor challenge, caliper measurements, relative to PBS control. Format: in vivo.

SMILES strings stand for the structures.

Method: In vivo testing was done with a syngeneic 4t1 model of breast cancer in immuno-competent Balb/c mice. […] Briefly, primary tumors were established in mammary tissue of 6 week old Balb/c mice by injection of 106 4t1-12B cells subcutaneously under the nipple. The mice were kept in standard housing and with a normal diet. Each group of mice (6-10 per group, 20 g±10% body weight) were injected (100 microliters) 2 times per week through the tail vein for a period of 3 weeks, starting either on day one or day six after the tumor challenge. Clodronate solution was dissolved in PBS and given intravenously starting on day one after tumor challenge. Control mice were injected intravenously through the tail vein with PBS. Tumor growth was measured in a blinded fashion with a caliper each week and tumor volumes were calculated using the measured dimensions. Body weights were recorded weekly, and mice were sacrificed on day 34.

Take `O=P(O)(O)C(Cl)(Cl)P(=O)(O)O` [Clodronate (5.6 mg/mL) in PBS, clodronate]: the “tumor volume growth of 4t1-luc cancer cells” value was “did not inhibit the growth of 4 μl tumors relative to PBS control”. Also, the “tumor volume growth of 4t1-luc cancer cells” value (listed as clodronate solution) is “unable to inhibit growth of 4 μl tumors as effectively as clodronate-hydroxyapatite”.
